What follows are compounds tested on HCV replicon (5-2 Luc replicon-comprising cells) (assay: HCV replicon assay (luciferase)). Settings: 5-2 Luc replicon cells, luciferase readout; read-out: Replicon IC50.
Type: cell-based, Hepatitis C virus
Description: In one embodiment, the inhibitory activity of the compounds can be confirmed in a replicon assay that assesses the ability of a test compound to block or inhibit HCV replication in replicon cells. One example of a suitable replicon assay is the liver cell-line Huh 7-based replicon assay described in Lohmann et al., 1999, Science 285:110–113. A specific example of this replicon assay which utilizes luciferase translation is provided in the Examples Section. In one embodiment of this assay, the amount of test compound that yields a 50% reduction in translation as compared to a control cell (IC50) may be determined.
The inhibitory activity of certain exemplary compounds of the invention was confirmed using an HCV replicon assay. The HCV replicon can include such features as the HCV 5′ untranslated region including the HCV IRES, the HCV 3′ untranslated region, selected HCV genes encoding HCV polypeptides, selectable markers, and a reporter gene such as luciferase, GFP, etc. In the assay, actively dividing 5-2 Luc replicon-comprising cells (obtained from Ralf Bartenschlager; see Lohmann et al., 1999, Science 285:110–113) were seeded at a density of between about 5,000 and 7,500 cells/well onto 96 well plates (about 90 μl of cells per well) and incubated at 37° C. and 5% CO2 for 24 hours. Then, the test compound (in a volume of about 10 μl) was added to the wells at various concentrations and the cells were incubated for an additional 24 hours before luciferase assay. Briefly, the Bright-Glo reagent was diluted 1:1 with PBS and 100 μl of diluted reagent was added to each well. After 5 min of incubation at room temperature, luciferin emission was quantified with a luminometer. In this assay, the amount of test compound that yielded a 50% reduction in luciferase activity (IC50) was determined.
In TABLE 1, a value of “+” indicates an IC50 of 10 μM or less in the specified assay; a value of “−” indicates an IC50 of greater than 10 μM in the specified assay.

Compound | IC50 [µM]
CN(C)C1CCN(c2cccc(Cl)c2-c2cc(-c3cccc(NC(=O)C(Cl)Cl)c3)on2)C1 (racemic) [Compound 132, (±)-2,2-Dichloro-N-[3-[3-[2-chloro-6-(3-dimethylamino-N-pyrrolidino)phenyl]-5-isoxazolyl]-phenyl]Acetamide] | < 10
Cc1cc(OCCN2CCOCC2)cc(C)c1-c1cc(-c2cccc(NC(=O)C(Cl)Cl)c2)on1 [Compound 23, 2,2-Dichloro-N-[3-[3-[2,6-dimethyl-4-(N-morpholino-2-ethyleneoxy)phenyl]-5-isoxazolyl]phenyl]Acetamide] | < 10
CN(C(=O)C(Cl)Cl)c1cccc(-c2cc(-c3c(Cl)cccc3Cl)no2)c1 [Compound 57, 2,2-Dichloro-N-[3-[3-(2,6-dichlorophenyl)-5-isoxazolyl]phenyl]-N-methyl Acetamide] | < 10
O=C(Nc1cccc(-c2cc(-c3c(Cl)cc(OCCCN4CCOCC4)cc3Cl)no2)c1)C(Cl)Cl [Compound 73, 2,2-Dichloro-N-[3-[3-[2,6-dichloro-4-(N-morpholinopropyleneoxy)phenyl]-5-isoxazolyl]-phenyl]Acetamide] | < 10
O=C(Nc1cccc(-c2noc(-c3c(Cl)cccc3Cl)n2)c1)C(Cl)Cl [Compound 87, 2,2-Dichloro-N-[3-[5-(2,6-dichlorophenyl)-3-(1,2,4-oxadiazolyl)]phenyl]Acetamide] | < 10
O=C(Nc1cccc(-c2cc(-c3c(Cl)cccc3OCCN3CCOCC3)no2)c1)C(Cl)Cl [Compound 95, 2,2-Dichloro-N-[3-[3-[2-chloro-6-(N-morpholino-2-ethyleneoxy)phenyl]-5isoxazolyl]-phenyl]Acetamide] | < 10
COC(=O)c1ccccc1-c1cc(-c2cccc(NC(=O)C(Cl)Cl)c2)on1 [Compound 115, 2,2-Dichloro-N-[3-[3-(2-carbomethoxy)phenyl-5-isoxazolyl]phenyl]Acetamide] | < 10
O=C(Nc1cccc(-c2cc(-c3ccccc3-c3ccccc3)no2)c1)C(Cl)Cl [Compound 123, 2,2-Dichloro-N-[3-[3-(2-phenyl)phenyl-5-isoxazolyl]phenyl]Acetamide] | < 10
O=C(Nc1cccc(-c2cc(-c3c(Cl)cc(OCCN4CCCCC4)cc3Cl)no2)c1)C(Cl)Cl [Compound 125, 2,2-Dichloro-N-[3-[3-[2,6-dichloro-4-(N-piperidinylethylenoxy)phenyl]-5-isoxazolyl]-phenyl]Acetamide] | < 10
CN(C)CCN(C)c1cccc(Cl)c1-c1cc(-c2cccc(NC(=O)C(Cl)Cl)c2)on1 [Compound 131, 2-Dichloro-N-[3-[3-[2-chloro-6-(N,N-dimethylethylene-N′-methylamino)phenyl]-5-isoxazolyl]-phenyl]Acetamide] | < 10
O=C(Nc1cccc(-c2cc(-c3c(Cl)cc(Cl)cc3OCCN3CCOCC3)no2)c1)C(Cl)Cl [Compound 143, 2,2-Dichloro-N-[3-[3-[2,4-dichloro-6-(N-morpholino-2-ethyleneoxy)phenyl]-5-isoxazolyl]-phenyl]Acetamide] | > 10
CS(=O)(=O)c1cccc(F)c1-c1cc(-c2cccc(NC(=O)C(Cl)Cl)c2)on1 [Compound 153, 2,2-Dichloro-N-[3-[3-(2-fluoro-6-methylsulfonyl)phenyl-5-isoxazolyl]phenyl]Acetamide] | > 10
O=C(Nc1cc(-c2cc(-c3c(Cl)cccc3Cl)no2)ccc1N1CCOCC1)C(Cl)Cl [Compound 169] | > 10
O=C(Nc1cc(-c2cc(-c3c(Cl)cccc3Cl)no2)ccc1OCCN1CCOCC1)C(Cl)Cl [Compound 171, 2,2-Dichloro-N-[3-[3-(2,6-dichlorophenyl)-5-isoxazolyl]-6-(N-morpholino-2-ethyleneoxy)phenyl]Acetamide] | > 10
O=C(Nc1cccc(-c2cc(-c3c(Cl)cccc3N3CCOCC3)no2)c1)C(Cl)Cl [Compound 500] | < 10
O=C(Nc1cccc(-c2cc(-c3c(Cl)cccc3N3CCN(c4ccccn4)CC3)no2)c1)C(Cl)Cl [Compound 501] | < 10
O=C(Nc1cccc(-c2cc(-c3c(Cl)cccc3N3CCCCC3)no2)c1)C(Cl)Cl [Compound 503] | < 10
NC1CCN(c2cccc(Cl)c2-c2cc(-c3cccc(NC(=O)C(Cl)Cl)c3)on2)C1 (stereo not drawn) [Compound 504] | < 10
CCNc1cccc(Cl)c1-c1cc(-c2cccc(NC(=O)C(Cl)Cl)c2)on1 [Compound 507] | < 10
CCN(CC)c1cccc(Cl)c1-c1cc(-c2cccc(NC(=O)C(Cl)Cl)c2)on1 [Compound 508] | < 10

Compound | IC50 [µM]
CC(C)(C)OC(=O)N1CCN(c2cccc(Cl)c2-c2cc(-c3cccc(NC(=O)C(Cl)Cl)c3)on2)CC1 [Compound 510] | < 10
O=C(Nc1cccc(-c2cc(-c3c(Cl)cccc3N3CCNCC3)no2)c1)C(Cl)Cl [Compound 511] | < 10
[N-]=[N+]=Nc1cccc(Cl)c1-c1cc(-c2cccc(NC(=O)C(Cl)Cl)c2)on1 [Compound 512] | < 10
O=C(Nc1cccc(-c2cc(-c3c(Cl)cccc3N3CCN(C(=O)c4ccccn4)CC3)no2)c1)C(Cl)Cl [Compound 513] | < 10
O=C(Nc1cccc(-c2cc(-c3c(Cl)cccc3N3CCN(S(=O)(=O)c4ccccc4)CC3)no2)c1)C(Cl)Cl [Compound 514] | < 10
O=C(Nc1cccc(-c2cc(-c3c(Cl)cccc3N3CCN(c4cnccn4)CC3)no2)c1)C(Cl)Cl [Compound 515] | < 10
O=C(Nc1cccc(-c2cc(-c3c(Cl)cccc3N3CCN(c4ccccc4)CC3)no2)c1)C(Cl)Cl [Compound 516] | < 10
O=C(Nc1cccc(-c2cc(-c3c(Cl)cccc3N3CCN(c4ncccn4)CC3)no2)c1)C(Cl)Cl [Compound 517] | < 10
O=C(Nc1cccc(-c2cc(-c3c(Cl)cccc3N3CCN(C(=O)c4ccco4)CC3)no2)c1)C(Cl)Cl [Compound 519] | < 10
O=C(Nc1cccc(-c2cc(-c3c(N4CCN(c5ccccn5)CC4)cccc3C(F)(F)F)no2)c1)C(Cl)Cl [Compound 520] | < 10
O=C(Nc1cccc(-c2cc(-c3c(F)cccc3N3CCN(c4ccccn4)CC3)no2)c1)C(Cl)Cl [Compound 521] | < 10
O=C(Nc1cccc(-c2cc(-c3c(Cl)cccc3N3CCN(Cc4cccnc4)CC3)no2)c1)C(Cl)Cl [Compound 522] | < 10
O=C(Nc1cccc(-c2cc(-c3c(Cl)cccc3N3CCCN(c4ccccn4)CC3)no2)c1)C(Cl)Cl [Compound 523] | < 10
COc1cccc(N2CCN(c3cccc(Cl)c3-c3cc(-c4cccc(NC(=O)C(Cl)Cl)c4)on3)CC2)c1 [Compound 524] | < 10
O=C(Nc1cccc(-c2cc(-c3c(Cl)cccc3N3CCN(Cc4ccccn4)CC3)no2)c1)C(Cl)Cl [Compound 526] | < 10
O=C(Nc1cccc(-c2cc(-c3c(Cl)cccc3N3CCC(OC(=O)C(Cl)Cl)CC3)no2)c1)C(Cl)Cl [Compound 527] | < 10
O=C(Nc1cccc(-c2cc(-c3c(Cl)cccc3N3CCC(O)CC3)no2)c1)C(Cl)Cl [Compound 528] | < 10
CS(=O)(=O)N1CCN(c2cccc(Cl)c2-c2cc(-c3cccc(NC(=O)C(Cl)Cl)c3)on2)CC1 [Compound 529] | < 10
O=C(Nc1cccc(-c2cc(-c3c(Cl)cccc3N3CCN(C(=O)c4ccno4)CC3)no2)c1)C(Cl)Cl [Compound 530] | < 10

Same assay, conditions: Hepatitis C virus; 5-2 Luc replicon cells, luciferase readout; read-out: Replicon IC50

Compound | IC50 [µM]
CN1CCN(c2cccc(Cl)c2-c2cc(-c3cccc(NC(=O)C(Cl)Cl)c3)on2)CC1 [Compound 99, 2,2-Dichloro-N-[3-[3-[2-chloro-6-(4-methylpiperazino)phenyl]-5-isoxazolyl]phenyl]Acetamide] | < 10
O=C(Nc1ccc(S(=O)(=O)NN2CCOCC2)c(-c2cc(-c3c(Cl)cccc3Cl)no2)c1)C(Cl)Cl [Compound 107, 2,2-Dichloro-N-[3-[3-(2,6-dichlorophenyl)-5-isoxazolyl]4-(N-morpholinosulfamoyl)-phenyl]Acetamide] | < 10
O=C(Nc1cccc(-c2cc(-c3c(Cl)cccc3-n3ccnc3)no2)c1)C(Cl)Cl [Compound 117, 2,2-Dichloro-N-[3-[3-[2-chloro-6-(N-imidazolyl)phenyl]-5-isoxazolyl]phenyl]Acetamide] | < 10
CCOC(=O)C1CCN(c2cccc(Cl)c2-c2cc(-c3cccc(NC(=O)C(Cl)Cl)c3)on2)CC1 [Compound 151, 2,2-Dichloro-N-[3-[3-[2-chloro-6-(4-carboethoxypiperidino)phenyl]-5-isoxazolyl]-phenyl]Acetamide] | > 10
O=C(O)c1ccccc1-c1cc(-c2cccc(NC(=O)C(Cl)Cl)c2)on1 [Compound 157, 2,2-Dichloro-N-[3-[3-(2-carboxyphenyl)-5-isoxazolyl]phenyl]Acetamide] | > 10
COc1ccc(-c2cc(-c3c(Cl)cccc3Cl)no2)cc1NC(=O)C(Cl)Cl [Compound 173, 2,2-Dichloro-N-[3-[3-(2,6-dichlorophenyl)-5-isoxazolyl]-6-methoxyphenyl]Acetamide] | < 10

Source: patent US7115642B2, “Substituted diphenyl isoxazoles, pyrazoles and oxadiazoles useful for treating HCV infection” (priority 2003, dated 2006)
